Patent publication US9789096B2, “Methods and compositions for selective and targeted cancer therapy” (Board of Regents of the University of Texas System, priority 2013, dated 2017)

Legend:
Type in all cases: cell-based, human
H2122 = experiment: Cell viability dose-response, H2122; conditions: Homo sapiens; for AC50: NCI-H2122, Table 8, 12-point dose-response starting at 50 micromolar; for IC50: NCI-H2122, 12-point dose-response starting at 50 micromolar, 3-fold increments, in duplicate, read-out: toxicity data, H2122
Procedure: (§1) FIG. 6A. […] Cell viability is plotted vs. compound concentration. Compound was added to cells plated at 15% confluence in 96-well plates in RPMI-1640 media supplemented with 5% Fetal Bovine Serum and 2 mM L-Glutamine. After 4 days of incubation, ATP levels were measured using Cell Titer Glo (Promega). Data are presented as the average of 2 replicates ±SEM.
(§2) Selectivity may be measured by the half maximal inhibitory concentration (IC50), which, as used herein, is a measure of the effectiveness of a compound in killing cells. This quantitative measure indicates how much of a particular compound is needed to kill a particular cell population by half (e.g., as indicated by the amount of ATP). […] The IC50 can be determined by constructing a dose-response curve. The lower the IC50, the higher the potency, and the greater the difference between IC50 values for different cell lines (e.g., sensitive lines vs. insensitive lines, and sensitive lines vs. normal lines) the greater the selectivity. […]
(§3) With this information, we synthesized and tested a series of small molecules derived in conception from the oxalamide and chromone scaffold including N-acyl ureas, as shown in Tables 6-8. Each compound was tested in a 12-point dose-response study starting at 50 micromolar and decreasing in 3-fold increments to sub-nanomolar concentrations, in duplicate. Additionally, one or more additional cell line was tested in the same way.

HCC44 = experiment: Cell viability dose-response, HCC44; conditions: Homo sapiens, HCC44, Table 8; 12-point dose-response starting at 50 micromolar
Procedure: as §1, §2, §3

H1819 = experiment: Cell viability dose-response, H1819; conditions: Homo sapiens; for IC50: NCI-H1819, 12-point dose-response starting at 50 micromolar, 3-fold increments, in duplicate, read-out: toxicity data, H1819; for AC50: NCI-H1819, Table 8, 12-point dose-response starting at 50 micromolar
Procedure: as §1, §2, §3

H2009 = experiment: Cell viability dose-response, H2009; conditions: Homo sapiens, NCI-H2009, Table 8; 12-point dose-response starting at 50 micromolar
Procedure: as §1, §2, §3

| Structure (SMILES) | IC50 (H2122) | IC50 (H1819) | also measured |
| --- | --- | --- | --- |
| O=c1c(-c2cccc(F)c2)coc2cc(OCc3cnn(-c4ccccc4)c3)ccc12 [SW208735] |  |  | AC50 (H2122): 0.55 µM; AC50 (HCC44): 49.5 µM |
| COc1ccc(CCNC(=O)C(=O)Nc2ccc(C)c(OC)c2)cc1 [SW206969-1] | ≥ 49.5 µM | 49 µM |  |
| O=c1c(-c2ccc(F)cc2)coc2cc(OCc3cnn(-c4ccccc4)c3)ccc12 [SW208737] |  |  | AC50 (H2122): 0.27 µM; AC50 (HCC44): 49.5 µM |
| COc1ccc(CNC(=O)Nc2ccc(Cl)cc2)cc1 [SW208046-1-A] | ≥ 49.5 µM | ≥ 49.5 µM |  |
| COc1ccc(CCNC(=O)C(=O)Nc2ccc(C)cc2OC)cc1 [SW206971-1] | ≥ 49.5 µM | ≥ 49.5 µM |  |
| COc1ccc(CCNC(=O)C(=O)Nc2ccccc2F)cc1 [SW027962-2-A] | ≥ 49.5 µM | ≥ 49.5 µM |  |
| COc1ccc(CCNC(=O)C(=O)Nc2cccnc2F)cc1 [SW208133-1-A] | ≥ 49.5 µM | ≥ 49.5 µM |  |
| O=c1c(Cc2ccc(C(F)(F)F)cc2)coc2cc(OCc3cnn(-c4ccccc4)c3)ccc12 [SW209185-1] |  |  | AC50 (H2122): 0.085 µM; AC50 (H1819): 28.6 µM |
| O=c1c(Cc2cccc(C(F)(F)F)c2)coc2cc(OCc3cnn(-c4ccccc4)c3)ccc12 [SW209186-1] |  |  | AC50 (H2122): 0.047 µM; AC50 (H1819): 49.5 µM |
| COc1ccc(CCNC(=O)C(=O)Nc2ccnc(C)c2)cc1 [SW208138-1-A] | ≥ 49.5 µM | ≥ 49.5 µM |  |
| COc1ccc(CCNC(=O)C(=O)Nc2ccc(F)c(Br)c2)cc1 [SW206878-1-A] | 0.384 µM | ≥ 49.5 µM |  |
| COc1ccc(CCNC(=O)C(=O)Nc2ccc(C(=O)c3ccc(OC)cc3)cc2)cc1 [SW208009-1-A] | 0.081 µM | ≥ 49.5 µM |  |
| COc1ccc(CCNC(=O)c2cc(O)c3cccc(O)c3n2)cc1 [SW208054-1-A] | 46.3 µM | ≥ 49.5 µM |  |
| COc1ccc(CCNC(=O)C(=O)c2ccccc2)cc1 [SW208145-1-A] | ≥ 49.5 µM | ≥ 49.5 µM |  |
| COc1ccc(CCNC(=O)Nc2ccc(OC)cc2)cc1 [SW208024-1-A] | ≥ 49.5 µM | ≥ 49.5 µM |  |
| COc1ccc(CCNC(=O)c2cc(OC)c3ccccc3n2)cc1 [SW208053-1-A] | 45.9 µM | 32 µM |  |
| COc1ccc(CCNC(=O)C(=O)Nc2cccc(F)c2)cc1 [SW2068S9-1-A] | 2.26 µM | ≥ 49.5 µM |  |
| COc1ccc(CCNC(=O)C(=O)NCCc2ccc(OC)cc2)cc1 [SW206963-1] | ≥ 49.5 µM | ≥ 49.5 µM |  |
| COc1ccc(CCNC(=O)C(=O)O)cc1 [SW208132-1-A] | ≥ 49.5 µM | ≥ 49.5 µM |  |
| COc1ccc(CCNC(=O)C(=O)Nc2ccc(Br)cc2Br)cc1 [SW206888-1-A] | ≥ 49.5 µM | ≥ 49.5 µM |  |
| COc1ccc(CCNC(=O)C(=O)N2Cc3ccccc3C2)cc1 [SW208058-1-A] | ≥ 49.5 µM | ≥ 49.5 µM |  |
| O=c1c(Oc2ccccc2Br)coc2cc(OCc3cnn(-c4ccccc4)c3)ccc12 [SW 208585-1] |  |  | AC50 (H2009): 35 µM; AC50 (H2122): 0.1 µM |
| COc1ccc(CCCNC(=O)Nc2ccc(OC)cc2)cc1 [SW208029-1-A] | ≥ 49.5 µM | ≥ 49.5 µM |  |
| COc1ccc(CCNC(=O)C(=O)Nc2ccccc2OC)cc1 [SW027954-2-A] | ≥ 49.5 µM | ≥ 49.5 µM |  |
| COc1ccc(CCNC(=O)C(=O)Nc2ccccn2)cc1 [SW208122-1-A] | 45 µM | ≥ 49.5 µM |  |
| COc1ccc(CCCNC(=O)C(=O)c2ccccc2)cc1 [SW208152-1-A] | 15.2 µM | ≥ 49.5 µM |  |
| COc1ccc(CCCNC(=O)NCc2ccccc2)cc1 [SW208120-1-A] | 38.9 µM | ≥ 49.5 µM |  |
| COc1cccc(-c2coc3cc(OCc4cnn(-c5ccccc5)c4)ccc3c2=O)c1 [SW208733] |  |  | AC50 (H2122): 0.74 µM; AC50 (HCC44): 49.5 µM |
